Laboratory results taken from PubChem BioAssay (NCI).
Where “and” joins values, the source holds several entries; their conditions need not be identical. Equal entries are not always repeated.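 Tested at 5 concentrations; 48 h exposure; 96-well plates; endpoints linearly interpolated, else capped at highest concentration. Here, GI50 denotes the concentration required for 50% inhibition of growth. The concentration for full growth arrest is given as TGI.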

Assays:
Experiment in all cases: growth of human tumour cells (NCI), 48 h
DU-145 prostate = system: DU-145 prostate
HCT-15 colon = system: HCT-15 colon
HL-60(TB) leukemia = system: HL-60(TB) leukemia
LOX IMVI melanoma = system: LOX IMVI melanoma
M14 melanoma = system: M14 melanoma
MCF7 breast = system: MCF7 breast
MOLT-4 leukemia = system: MOLT-4 leukemia
SF-295 CNS = system: SF-295 CNS
SW-620 colon = system: SW-620 colon
U251 CNS = system: U251 CNS

Row | Compound | GI50 (DU-145 prostate) | TGI (DU-145 prostate) | GI50 (HCT-15 colon) | TGI (HCT-15 colon) | GI50 (HL-60(TB) leukemia) | TGI (HL-60(TB) leukemia) [µM] | GI50 (LOX IMVI melanoma) | TGI (LOX IMVI melanoma) | GI50 (M14 melanoma) | TGI (M14 melanoma) [µM] | GI50 (MCF7 breast) [µM] | TGI (MCF7 breast) | GI50 (MOLT-4 leukemia) | TGI (MOLT-4 leukemia) | GI50 (SF-295 CNS) | TGI (SF-295 CNS) | GI50 (SW-620 colon) | TGI (SW-620 colon) | GI50 (U251 CNS) | TGI (U251 CNS)
1 | FC(F)(F)c1[nH]ncc1-c1nc2c(N3CCCCC3)cc3[nH]ncc3c2c2c1CCCC2 | 0.702 µM | > 13 µM | 1.07 µM | > 16.5 µM | 1.23 µM | 3.32 | 0.656 µM | 1.43 µM | 0.6 µM | 1.42 | 0.514 | > 15.4 µM | 0.744 µM | 2.78 µM | 0.857 µM | 3.16 µM | 0.556 µM | 2.67 µM | 0.87 µM | 5.67 µM
2 | Cc1ccc(Nc2[nH]c(C(=O)c3ccc(Cl)cc3)c(N)c2C(=S)Nc2ccccc2)nc1 | 31.2 µM | > 100 µM | 31 µM | > 100 µM | 63.3 µM | > 100 | 23 µM | 53.1 µM | 77.8 µM | > 100 | 33.1 | > 100 µM | 56.3 µM | > 100 µM | 21.5 µM | 67.3 µM | 32.7 µM | > 100 µM | 26.8 µM | > 100 µM
3 | S=c1nc[nH]c2nc[nH]c12 | 0.825 µM and 3.96 µM | > 750 µM | 3.4 µM and 18.2 µM | > 100 µM and 629 µM and > 750 µM | 3.11 µM and 3.31 µM | – | 0.321 µM and 3.01 µM | 41.4 µM and 111 µM and 192 µM | 0.418 µM and 3.92 µM | – | – | > 100 µM and 512 µM and > 413 µM | 2.34 µM and 13.2 µM | 26.8 µM and 245 µM and 31.6 µM | 1.76 µM and 12.3 µM | > 100 µM and 735 µM and > 750 µM | 3.97 µM and 15.1 µM | > 100 µM and 692 µM and > 750 µM | 19.3 µM and 72.4 µM | > 100 µM and 719 µM and > 750 µM
4 | CC(C)(C)OC(=O)N1CC(Cn2cc(C(F)(F)F)c3c(Cl)ncnc32)C1 | 1.79 µM | 3.18 µM | 2 µM | 4.4 µM | 2.37 µM | 5.82 | 1.75 µM | 3.27 µM | 1.72 µM | 3.38 | 2.13 | 6.15 µM | 2.39 µM | 6.28 µM | 1.99 µM | 4.75 µM | 3.3 µM | 10.6 µM | 1.79 µM | 3.26 µM
5 | CC(C)[C@](O)(C(=O)OCC1=CC[N+]2([O-])CC[C@@H](O)[C@@H]12)[C@H](C)O (stereo partly drawn) | – | > 10000 µM | – | > 10000 µM | – | 9860 | – | > 10000 µM | – | > 10000 | – | > 10000 µM | – | > 10000 µM | – | > 10000 µM | – | > 10000 µM | – | > 10000 µM
6 | Clc1nc(Cl)c2ncn(C/C=C/Cn3cnc4c(Cl)nc(Cl)nc43)c2n1 | 15.2 µM | 28.6 µM | 16.1 µM | 30.2 µM | 17.3 µM | > 100 | 14.9 µM | 28.9 µM | 21.2 µM | 39.7 | 6.69 | 21.6 µM | 17 µM | 37.4 µM | 16.8 µM | 31.3 µM | 8.72 µM | 22.5 µM | 16.8 µM | 30.7 µM
7 | COc1ccc(-c2ccc3ncc4c(c3c2)n(-c2ccc(N3CCNCC3)c(C(F)(F)F)c2)c(=O)n4C)cn1 | < 0.01 µM and 0.00475 µM | 0.686 µM and 0.433 µM | < 0.0104 µM and 0.0127 µM | 0.137 µM and 0.186 µM | 0.0143 µM | 0.113 | < 0.01 µM and 0.00403 µM | 0.359 µM and 0.0882 µM | 0.00455 µM | 0.0621 | 0.0035 | 0.0793 µM | < 0.01 µM and 0.00654 µM | 0.186 µM and 0.143 µM | < 0.01 µM and 0.00331 µM | 0.0284 µM and 0.032 µM | 0.0103 µM and 0.0117 µM | 0.131 µM and 0.132 µM | < 0.01 µM and 0.00869 µM | 0.13 µM and 0.429 µM
8 | OC(COc1cccc2ccccc12)CN1CCN(c2ccc(Cl)cc2)CC1 (stereo not drawn) | 38.9 µM | > 100 µM | > 100 µM | > 100 µM | > 100 µM | > 100 | 26.3 µM | > 100 µM | 64.8 µM | > 100 | 29.9 | > 100 µM | > 100 µM | > 100 µM | 11.4 µM | 36.9 µM | 17.9 µM | > 100 µM | 12.6 µM | 29.9 µM
9 | COc1cc2cn3c4ccc(O)cc4nc(N)c3c2cc1OC | 0.253 µM | 5.75 µM | 0.721 µM | 12.1 µM | 0.887 µM | 2.41 | 0.0621 µM | 1.79 µM | 0.167 µM | 8.33 | 0.174 | 4.15 µM | 0.483 µM | 4.33 µM | 0.265 µM | 11.5 µM | 0.119 µM | 16 µM | 0.11 µM | 8.32 µM
10 | COc1ccc2[nH]c(-c3ccccc3)c(C=C(C#N)C#N)c2c1 | 6.52 µM | > 100 µM | 3.23 µM | > 100 µM | 2.5 µM | 13.2 | 4.88 µM | > 100 µM | 2.29 µM | 44.5 | 2.16 | > 100 µM | 3.74 µM | > 100 µM | 4.15 µM | > 100 µM | 3.62 µM | > 100 µM | 3.53 µM | 25.5 µM
11 | O=C(Nc1ccc(Cl)cc1F)c1cc(F)ccc1O | 1.24 µM | > 46.3 µM | 1.46 µM | 9.62 µM | 0.622 µM | 3.45 | 0.522 µM | 5.31 µM | 1.11 µM | 5.44 | 1.77 | 9.28 µM | 1.9 µM | 4.77 µM | 1.8 µM | 3.57 µM | 1.46 µM | 23.6 µM | 0.832 µM | > 38.8 µM
12 | [C-]#[O+].[C-]#[O+].[Ir].[O-]c1ccc2ccccc2c1N=Nc1ccccc1 | – | 31.9 µM | – | 19.8 µM | – | 7.76 | – | 24.6 µM | – | 13.2 | – | 21 µM | – | 50.2 µM | 45.9 µM | > 72.1 µM | – | 5.37 µM | – | 34.9 µM
